Laboratory results reported in paper PMC7895462 (Neurochemical research, 2017).
Where two headings read alike, the source gives them in different places.

Experiments:
[1] = tested on: MES-induced seizures; assay: Maximal electroshock; format: in vivo
[2] = tested on: psychomotor seizures induced by 6 Hz 44 mA corneal stimulus; assay: 6 Hz 44 mA mouse test; format: in vivo; conditions: for Mouse I.P identification 44 mA / Mouse P.O. identification 44 mA: 6 Hz 44 mA, 0.5 and 2 h, default doses 30, 100, 300 mg/kg; for ED50: Mus musculus
[3] = in vivo; for Rat I.P. identification TOX: ip; for Rat P.O. identification TOX: po
[4] = tested on: MES-induced seizures; assay: Maximal electroshock; format: in vivo; conditions: for Mouse I.P identification MES / Mouse P.O. identification MES: 0.5 and 2 h, default doses 30, 100, 300 mg/kg; for ED50: Mus musculus
[5] = tested on: spontaneous bursting of a mEC-HC slice; assay: In vitro post-KA rat spontaneous bursting mEC-HC slice; format: cell-based
[6] = tested on: 60 Hz corneal kindled seizures; conditions: for protected in the corneal kindled mouse: 30 min after administration; for average seizure score (SEM): corneal kindled mouse
[7] = tested on: 60 Hz corneal kindled seizures; assay: animal or person; conditions: Mus musculus, ip
[8] = in vivo; conditions: rat
[9] = in vivo; conditions: mouse
[10] = 0.5 and 2 h, default doses 30, 100, 300 mg/kg
[11] = Minimal motor impairment; conditions: for TD50: rat, in vivo
[12] = read-out: Mouse CKM (I.P.) Quant (ED50), i.p.
[13] = ip, read-out: Mouse I.P. quantification 44 mA (ED50)
[14] = po, read-out: Mouse P.O. quantification 44 mA (ED50)
[15] = ip, read-out: Mouse I.P. quantification MES (ED50)
[16] = po, read-out: Mouse P.O. quantification MES (ED50)
[17] = ip, Rat I.P. quantification TOX (TD50)
[18] = read-out: Mouse CKM (I.P.) Quant (ED50)
[19] = po, Rat P.O. quantification TOX (TD50)

Row | SMILES | Rat I.P. identification MES [1] | Rat P.O. identification MES [1] | Mouse I.P identification 44 mA [2] | Mouse P.O. identification 44 mA [2] | Rat I.P. identification TOX [3] | Rat P.O. identification TOX [3] | Mouse I.P identification MES [4] | Mouse P.O. identification MES [4] | Mouse CKM (I.P.) ID ([6]; i.p.) | ED50 [7, 12] | ED50 [2, 13] | ED50 [2, 14] | ED50 [4, 15] | ED50 [4, 16] | TD50 ([9]; po) | Mouse P.O. identification TOX [10] | Rat I.P. identification TOX [11] | Rat P.O. identification TOX [11] | TD50 ([9]; ip) | other results
1 | CC(=O)Nc1ccc(O)cc1 [Acetaminophen, acetaminophen] | − | − | − | − | − | − | − | − | + | > 450 mg/kg |  |  |  |  |  |  |  |  |  | amplitude of spontaneous bursts ([5]; 3000 μM): small, but significant increase; acute effects on spontaneous bursting in vitro ([5]; concentrations up to 1000 μM): did not identify any acute effects; protected in the corneal kindled mouse ([6]; 20 mg/kg, i.p.): 1/8; protected in the corneal kindled mouse ([6]; 80 mg/kg, i.p.): 0/8; protected in the corneal kindled mouse ([6]; 120 mg/kg, i.p.): 1/8; protected in the corneal kindled mouse ([6]; 150 mg/kg, i.p.): 2/8; protected in the corneal kindled mouse ([6]; 175 mg/kg, i.p.): 0/12; death of corneal kindled mice ([6]; 450 mg/kg, 24-hours later): 1/4; protected in the corneal kindled mouse ([6]; 450 mg/kg, i.p.): 3/4
2 | NC(=O)N1c2ccccc2C=Cc2ccccc21 [Carbamazepine, carbamazepine] | + | + | + | + | + | + | + | + | + | 6.42 mg/kg | 31.4 mg/kg | 63.7 mg/kg | 8.38 mg/kg | 11.3 mg/kg | 95.4 mg/kg |  |  |  |  | TD50 ([8]; ip): 22.9 mg/kg; TD50 ([8]; po): > 500 mg/kg; protective index (PI), corneal kindled mouse ([6]; male, CF-1, mouse, in vivo, ip): 7.1
3 | CN1C(=O)CC(=O)N(c2ccccc2)c2cc(Cl)ccc21 [Clobazam, clobazam] | − | − | + | + |  |  | + | + | + |  | 4.5 mg/kg | 6.99 mg/kg | 16.5 mg/kg | 29.9 mg/kg | 197 mg/kg | − | − | − | 26.1 mg/kg | Mouse I.P identification TOX [10]: +; TD50 [11, 17]: 15.7 mg/kg; protective index (PI), corneal kindled mouse ([6]; calculated based on the i.p. TD50): 10.3; ED50 [7, 18]: 2.53 mg/kg
4 | CC[C@@H](C(N)=O)N1CCCC1=O [Levetiracetam, levetiracetam] | − | − | + | + | − | − | − | − | + |  | > 1500 mg/kg | > 500 mg/kg |  |  | > 500 mg/kg |  |  |  | > 1500 mg/kg | 
5 | OC[C@H]1O[C@@H](n2cnc3c(NC4CCCC4)ncnc32)[C@H](O)[C@@H]1O [N6-Cyclopentyladenosine, N^6-cyclopentyladenosine] | + | + | + | + |  |  | + | + | − |  | 0.19 mg/kg | 1.36 mg/kg | 1.01 mg/kg | 4.43 mg/kg | 6.94 mg/kg | + | + | + | 0.94 mg/kg | Mouse I.P identification TOX [10]: +; TD50 [11, 19]: > 10 mg/kg; average seizure score (SEM) ([6]; 0.1 mg/kg): 4.75 ± 0.25; average seizure score (SEM) ([6]; 2 mg/kg): 4.88 ± 0.13
6 | CCOC(=O)Nc1ccc(NCc2ccc(F)cc2)cc1N [Retigabine, retigabine] | + | + | + | + |  |  | + | + | + |  | 32.5 mg/kg | 75.1 mg/kg | 25.7 mg/kg | 57 mg/kg | > 500 mg/kg | + | + | + | 129 mg/kg | TD50 [11, 17]: 23.4 mg/kg; TD50 [11, 19]: 64.4 mg/kg; ED50 [7, 18]: 13.7 mg/kg
7 | Cc1ccsc1C(=CCCN1CCC[C@@H](C(=O)O)C1)c1sccc1C [Tiagabine, tiagabine] | − | − | + | + | + | − | − | − |  |  | 1.03 mg/kg | 1.87 mg/kg |  |  | 33.2 mg/kg |  |  |  | 5.84 mg/kg | 
8 | CCCC(CCC)C(=O)O [Valproic acid, valproic acid] | − | − | + | − | − | − |  | − | + | 94 mg/kg | 239 mg/kg | > 300 mg/kg | > 60 mg/kg | > 300 mg/kg | < 300 mg/kg |  |  |  | > 300 mg/kg | Mouse CKM (I.P.) Quant (ED50) ([6]; i.p.): 94.02 mg/kg; protective index (PI), corneal kindled mouse ([6]; male, CF-1, mouse, in vivo, ip): > 94
